Assays:
[1] = biological target: Tyrosine-protein kinase CSK (Homo sapiens) (UniProt P41240); test: Inhibition of human recombinant CSK at 40 nM in presence of ATP by radiometric assay relative to control
[2] = biological target: Mitogen-activated protein kinase kinase kinase 20 (Homo sapiens) (UniProt Q9NYL2); test: Inhibition of human recombinant ZAK at 40 nM in presence of ATP by radiometric assay relative to control
[3] = biological target: Serine/threonine-protein kinase mTOR (Homo sapiens) (UniProt P42345); test: Inhibition of human recombinant FRAP at 40 nM related to control ULK1
[4] = biological target: T1, Serine/threonine-protein kinase TAO1 (Homo sapiens) (UniProt Q7L7X3); test: Inhibition of human recombinant TAO1 at 40 nM in presence of ATP by radiometric assay relative to control
T1 sequence (whole entry): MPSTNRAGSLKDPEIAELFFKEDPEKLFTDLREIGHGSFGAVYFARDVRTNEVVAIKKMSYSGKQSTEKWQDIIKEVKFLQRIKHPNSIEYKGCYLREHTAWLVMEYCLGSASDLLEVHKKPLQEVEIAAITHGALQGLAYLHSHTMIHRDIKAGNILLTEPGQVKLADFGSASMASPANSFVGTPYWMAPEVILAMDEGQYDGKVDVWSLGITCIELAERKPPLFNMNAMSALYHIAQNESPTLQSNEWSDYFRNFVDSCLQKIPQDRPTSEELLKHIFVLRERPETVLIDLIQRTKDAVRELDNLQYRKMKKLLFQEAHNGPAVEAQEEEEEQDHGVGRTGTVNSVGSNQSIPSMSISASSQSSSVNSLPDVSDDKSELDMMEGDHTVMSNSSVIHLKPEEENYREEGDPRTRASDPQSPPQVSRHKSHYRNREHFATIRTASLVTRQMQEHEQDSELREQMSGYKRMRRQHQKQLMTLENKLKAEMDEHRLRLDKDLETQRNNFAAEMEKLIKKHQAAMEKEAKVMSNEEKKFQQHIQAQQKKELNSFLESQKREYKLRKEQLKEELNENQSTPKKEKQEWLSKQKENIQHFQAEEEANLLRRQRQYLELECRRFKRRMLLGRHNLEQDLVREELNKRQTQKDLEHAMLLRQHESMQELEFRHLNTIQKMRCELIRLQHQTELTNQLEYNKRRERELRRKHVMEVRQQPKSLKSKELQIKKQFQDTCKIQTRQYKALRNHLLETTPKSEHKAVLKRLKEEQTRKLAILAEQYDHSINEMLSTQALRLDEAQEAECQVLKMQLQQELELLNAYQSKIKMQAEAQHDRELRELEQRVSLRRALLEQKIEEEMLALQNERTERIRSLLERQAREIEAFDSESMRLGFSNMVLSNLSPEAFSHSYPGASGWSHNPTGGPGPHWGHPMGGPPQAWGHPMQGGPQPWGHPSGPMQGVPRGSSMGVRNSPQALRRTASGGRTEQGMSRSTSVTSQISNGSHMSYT

[5] = biological target: Serine/threonine-protein kinase WNK2 (Homo sapiens) (UniProt Q9Y3S1); test: Inhibition of human recombinant Wnk2 at 40 nM related to control ULK1
[6] = biological target: Calcium/calmodulin-dependent protein kinase type 1D (Homo sapiens) (UniProt Q8IU85); test: Inhibition of human recombinant CaMK1d at 40 nM related to control ULK1
Calcium/calmodulin-dependent protein kinase type 1D (Homo sapiens), sequence (Q8IU85 whole entry, looked up): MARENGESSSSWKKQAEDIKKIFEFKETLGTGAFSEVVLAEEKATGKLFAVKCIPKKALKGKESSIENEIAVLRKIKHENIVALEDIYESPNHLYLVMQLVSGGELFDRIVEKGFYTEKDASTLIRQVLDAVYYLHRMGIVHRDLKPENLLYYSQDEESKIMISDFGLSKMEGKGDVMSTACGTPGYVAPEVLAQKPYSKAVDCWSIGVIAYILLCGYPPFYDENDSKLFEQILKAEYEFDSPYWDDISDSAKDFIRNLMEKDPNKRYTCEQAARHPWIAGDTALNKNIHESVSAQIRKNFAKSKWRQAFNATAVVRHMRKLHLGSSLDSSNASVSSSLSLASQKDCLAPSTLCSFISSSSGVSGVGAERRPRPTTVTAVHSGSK

[7] = biological target: Mitogen-activated protein kinase 8 (Homo sapiens) (UniProt P45983); test: Inhibition of human recombinant JNK1 at 40 nM related to control ULK1
Mitogen-activated protein kinase 8 (Homo sapiens), sequence (P45983 whole entry): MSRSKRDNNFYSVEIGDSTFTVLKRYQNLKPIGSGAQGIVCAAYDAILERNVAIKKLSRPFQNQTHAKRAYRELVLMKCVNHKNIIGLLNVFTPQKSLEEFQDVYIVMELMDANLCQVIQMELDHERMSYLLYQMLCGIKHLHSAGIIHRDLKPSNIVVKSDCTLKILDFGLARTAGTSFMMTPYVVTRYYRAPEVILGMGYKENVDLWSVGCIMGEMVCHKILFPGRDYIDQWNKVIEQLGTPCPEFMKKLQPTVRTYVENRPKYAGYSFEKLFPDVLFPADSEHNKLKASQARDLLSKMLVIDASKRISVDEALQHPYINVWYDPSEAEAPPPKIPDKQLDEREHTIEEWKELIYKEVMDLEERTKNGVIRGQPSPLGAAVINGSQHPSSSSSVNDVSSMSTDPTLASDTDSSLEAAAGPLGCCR

[8] = biological target: Glycogen synthase kinase-3 alpha (Homo sapiens) (UniProt P49840); test: Inhibition of human recombinant GSK3A at 500 nM in presence of ATP by radiometric assay relative to control
Glycogen synthase kinase-3 alpha (Homo sapiens), sequence (P49840 2-483 limits assumed): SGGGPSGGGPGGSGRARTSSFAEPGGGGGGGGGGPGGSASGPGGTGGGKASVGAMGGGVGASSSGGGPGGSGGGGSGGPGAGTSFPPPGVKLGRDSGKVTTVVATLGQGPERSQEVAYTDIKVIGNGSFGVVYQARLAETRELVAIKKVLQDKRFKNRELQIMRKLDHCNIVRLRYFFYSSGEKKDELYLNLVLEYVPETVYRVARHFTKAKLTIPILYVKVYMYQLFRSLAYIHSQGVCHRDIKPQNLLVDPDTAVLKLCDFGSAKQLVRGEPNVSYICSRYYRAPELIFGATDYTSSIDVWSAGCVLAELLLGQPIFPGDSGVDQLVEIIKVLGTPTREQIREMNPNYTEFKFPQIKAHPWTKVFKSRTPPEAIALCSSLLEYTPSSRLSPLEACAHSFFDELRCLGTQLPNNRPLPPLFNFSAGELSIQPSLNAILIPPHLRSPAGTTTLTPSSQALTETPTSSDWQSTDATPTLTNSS

[9] = biological target: Tyrosine-protein kinase SYK (Homo sapiens) (UniProt P43405); test: Inhibition of human recombinant SYK at 500 nM related to control ULK1
[10] = biological target: Serine/threonine-protein kinase MARK2 (Homo sapiens) (UniProt Q7KZI7); test: Inhibition of human recombinant MARK2 at 500 nM related to control ULK1
[11] = biological target: Ribosomal protein S6 kinase alpha-4 (Homo sapiens) (UniProt O75676); test: Inhibition of human recombinant MSK2 at 500 nM related to control ULK1
Ribosomal protein S6 kinase alpha-4 (Homo sapiens), sequence (O75676 whole entry, looked up): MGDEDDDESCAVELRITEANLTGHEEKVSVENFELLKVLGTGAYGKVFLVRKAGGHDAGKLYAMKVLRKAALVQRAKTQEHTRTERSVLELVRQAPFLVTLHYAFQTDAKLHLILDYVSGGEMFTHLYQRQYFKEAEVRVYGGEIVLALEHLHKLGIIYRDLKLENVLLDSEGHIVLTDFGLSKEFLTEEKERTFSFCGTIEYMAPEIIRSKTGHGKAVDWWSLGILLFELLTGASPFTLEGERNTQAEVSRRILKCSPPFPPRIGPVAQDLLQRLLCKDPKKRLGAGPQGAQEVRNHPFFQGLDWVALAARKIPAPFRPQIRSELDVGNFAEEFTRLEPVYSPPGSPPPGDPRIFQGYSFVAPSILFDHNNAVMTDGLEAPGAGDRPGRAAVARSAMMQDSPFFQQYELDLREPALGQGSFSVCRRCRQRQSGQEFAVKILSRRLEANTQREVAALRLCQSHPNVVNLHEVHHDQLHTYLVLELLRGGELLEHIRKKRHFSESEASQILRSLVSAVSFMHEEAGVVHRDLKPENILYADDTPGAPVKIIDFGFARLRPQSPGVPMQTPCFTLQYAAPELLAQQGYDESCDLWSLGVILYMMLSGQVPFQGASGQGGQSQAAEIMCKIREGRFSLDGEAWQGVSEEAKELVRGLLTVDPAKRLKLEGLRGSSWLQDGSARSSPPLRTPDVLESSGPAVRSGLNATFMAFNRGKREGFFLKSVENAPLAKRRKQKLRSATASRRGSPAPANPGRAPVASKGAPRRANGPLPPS

[12] = biological target: Serine/threonine-protein kinase 25 (Homo sapiens) (UniProt O00506); test: Inhibition of human recombinant YSK1 at 15 nM in presence of ATP by radiometric assay relative to control
[13] = biological target: Leukocyte tyrosine kinase receptor (Homo sapiens) (UniProt P29376); test: Inhibition of human recombinant LTK at 15 nM related to control ULK1
Leukocyte tyrosine kinase receptor (Homo sapiens), sequence (P29376 whole entry): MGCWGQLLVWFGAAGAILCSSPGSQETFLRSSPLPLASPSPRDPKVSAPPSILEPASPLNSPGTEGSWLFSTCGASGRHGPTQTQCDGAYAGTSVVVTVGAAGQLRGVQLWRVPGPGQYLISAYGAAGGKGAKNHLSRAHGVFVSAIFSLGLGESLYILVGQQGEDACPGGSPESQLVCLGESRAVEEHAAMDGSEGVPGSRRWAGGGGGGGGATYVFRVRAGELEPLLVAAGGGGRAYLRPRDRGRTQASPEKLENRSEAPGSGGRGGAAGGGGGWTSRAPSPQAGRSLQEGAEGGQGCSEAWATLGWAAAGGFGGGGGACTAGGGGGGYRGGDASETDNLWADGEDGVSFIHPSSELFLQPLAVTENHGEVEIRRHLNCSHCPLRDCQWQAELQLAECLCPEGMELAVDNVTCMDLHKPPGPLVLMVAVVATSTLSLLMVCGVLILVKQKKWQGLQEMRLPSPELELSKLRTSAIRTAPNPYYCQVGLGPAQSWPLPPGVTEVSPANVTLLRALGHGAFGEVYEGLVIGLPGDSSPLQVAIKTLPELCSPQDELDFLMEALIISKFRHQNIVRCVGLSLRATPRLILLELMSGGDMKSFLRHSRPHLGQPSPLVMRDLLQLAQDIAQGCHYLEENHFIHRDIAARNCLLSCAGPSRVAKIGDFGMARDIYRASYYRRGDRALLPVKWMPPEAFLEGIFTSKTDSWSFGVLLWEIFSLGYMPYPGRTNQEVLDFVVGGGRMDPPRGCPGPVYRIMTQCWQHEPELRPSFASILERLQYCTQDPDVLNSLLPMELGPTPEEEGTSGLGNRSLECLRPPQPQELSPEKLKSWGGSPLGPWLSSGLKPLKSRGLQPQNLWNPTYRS

[14] = biological target: Vascular endothelial growth factor receptor 3 (Homo sapiens) (UniProt P35916); test: Inhibition of human recombinant FLT4 at 15 nM related to control ULK1
Vascular endothelial growth factor receptor 3 (Homo sapiens), sequence (P35916 whole entry): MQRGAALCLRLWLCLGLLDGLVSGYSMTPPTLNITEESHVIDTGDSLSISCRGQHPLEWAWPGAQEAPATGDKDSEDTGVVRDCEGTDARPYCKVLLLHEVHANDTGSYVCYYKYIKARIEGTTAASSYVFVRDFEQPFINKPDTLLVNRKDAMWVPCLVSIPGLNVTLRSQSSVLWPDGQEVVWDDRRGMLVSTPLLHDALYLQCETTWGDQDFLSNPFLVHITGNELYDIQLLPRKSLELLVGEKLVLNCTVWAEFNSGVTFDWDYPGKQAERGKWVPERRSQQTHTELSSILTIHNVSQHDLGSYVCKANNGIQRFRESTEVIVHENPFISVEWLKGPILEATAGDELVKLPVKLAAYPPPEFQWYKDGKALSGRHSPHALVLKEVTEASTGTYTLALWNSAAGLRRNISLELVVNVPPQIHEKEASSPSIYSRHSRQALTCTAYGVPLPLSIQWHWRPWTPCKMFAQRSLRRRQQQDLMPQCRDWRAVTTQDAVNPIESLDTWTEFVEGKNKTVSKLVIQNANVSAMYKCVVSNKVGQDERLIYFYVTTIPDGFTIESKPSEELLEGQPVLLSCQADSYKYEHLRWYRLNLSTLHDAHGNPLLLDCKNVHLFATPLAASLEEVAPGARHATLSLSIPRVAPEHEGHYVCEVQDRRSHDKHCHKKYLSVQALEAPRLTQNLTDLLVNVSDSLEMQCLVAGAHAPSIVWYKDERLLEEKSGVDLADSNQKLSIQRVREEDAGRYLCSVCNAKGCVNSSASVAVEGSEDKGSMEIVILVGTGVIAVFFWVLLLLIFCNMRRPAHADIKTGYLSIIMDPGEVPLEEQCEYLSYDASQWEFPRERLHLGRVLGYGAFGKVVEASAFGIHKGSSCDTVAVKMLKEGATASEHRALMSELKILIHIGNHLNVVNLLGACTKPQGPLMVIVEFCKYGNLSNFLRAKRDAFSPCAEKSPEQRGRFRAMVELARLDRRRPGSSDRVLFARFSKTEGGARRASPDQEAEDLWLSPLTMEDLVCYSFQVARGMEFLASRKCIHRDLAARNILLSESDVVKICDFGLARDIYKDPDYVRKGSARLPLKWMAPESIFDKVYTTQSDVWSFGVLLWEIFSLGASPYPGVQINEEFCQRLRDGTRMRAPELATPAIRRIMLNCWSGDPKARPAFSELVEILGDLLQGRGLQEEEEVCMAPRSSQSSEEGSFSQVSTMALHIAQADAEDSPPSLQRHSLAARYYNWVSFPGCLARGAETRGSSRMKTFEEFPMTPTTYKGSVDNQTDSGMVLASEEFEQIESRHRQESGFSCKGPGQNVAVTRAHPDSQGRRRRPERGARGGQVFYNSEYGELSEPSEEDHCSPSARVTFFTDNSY

[15] = biological target: T2, Inhibitor of nuclear factor kappa-B kinase subunit epsilon (Homo sapiens) (UniProt Q14164); test: Inhibition of human recombinant IKKe at 15 nM related to control ULK1
T2 sequence (whole entry): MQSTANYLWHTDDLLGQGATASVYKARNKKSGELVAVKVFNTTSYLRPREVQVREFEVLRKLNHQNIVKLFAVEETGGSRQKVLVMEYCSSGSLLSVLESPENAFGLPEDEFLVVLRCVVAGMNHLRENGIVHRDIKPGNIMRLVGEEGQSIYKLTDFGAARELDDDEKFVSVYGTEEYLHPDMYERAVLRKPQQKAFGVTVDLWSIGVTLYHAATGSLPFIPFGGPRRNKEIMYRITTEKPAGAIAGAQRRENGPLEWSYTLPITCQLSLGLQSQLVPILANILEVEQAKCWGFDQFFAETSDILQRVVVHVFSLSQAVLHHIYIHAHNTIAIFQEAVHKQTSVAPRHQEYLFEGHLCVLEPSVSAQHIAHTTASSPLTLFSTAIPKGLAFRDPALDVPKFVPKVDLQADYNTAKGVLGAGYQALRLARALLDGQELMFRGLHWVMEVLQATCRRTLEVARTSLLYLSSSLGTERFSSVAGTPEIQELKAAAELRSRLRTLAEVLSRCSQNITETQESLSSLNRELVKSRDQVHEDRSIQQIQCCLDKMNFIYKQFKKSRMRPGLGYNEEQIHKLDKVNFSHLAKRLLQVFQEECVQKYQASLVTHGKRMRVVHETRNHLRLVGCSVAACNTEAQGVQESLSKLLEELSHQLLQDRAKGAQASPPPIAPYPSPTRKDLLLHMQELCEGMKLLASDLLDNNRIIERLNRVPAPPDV

Tyrosine-protein kinase CSK (Homo sapiens), sequence (P41240 2-450 limits assumed): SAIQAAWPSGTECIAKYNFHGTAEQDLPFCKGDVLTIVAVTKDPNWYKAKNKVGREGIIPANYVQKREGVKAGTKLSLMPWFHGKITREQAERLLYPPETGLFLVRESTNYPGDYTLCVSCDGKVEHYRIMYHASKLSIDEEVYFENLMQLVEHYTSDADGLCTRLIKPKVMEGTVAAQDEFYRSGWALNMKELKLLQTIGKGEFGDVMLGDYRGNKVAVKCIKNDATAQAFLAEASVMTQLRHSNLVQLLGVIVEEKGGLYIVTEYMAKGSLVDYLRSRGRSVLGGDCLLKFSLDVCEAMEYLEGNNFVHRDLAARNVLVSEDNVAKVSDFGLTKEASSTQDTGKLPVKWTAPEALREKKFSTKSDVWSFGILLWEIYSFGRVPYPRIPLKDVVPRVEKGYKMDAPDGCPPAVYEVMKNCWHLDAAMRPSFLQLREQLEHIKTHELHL

Question: `O=C(N[C@@H](C1CC1)C(F)(F)F)c1cc(-c2cnn3cc(-c4ccc(F)cc4)cnc23)cs1` was tested. Which inhibition [1] did it give?
Answer: The inhibition was 0%.

Question: And the inhibition [2]?
Answer: Its inhibition is 0%.

Question: And the fold change (FC) [3]?
Answer: The fold change (FC) was 0.

Question: What about the inhibition [4] of the same molecule?
Answer: The inhibition was 0%.

Question: What about the fold change (FC) [5] of the same molecule?
Answer: Its fold change (FC) is 0.04.

Question: What about the fold change (FC) [6] of the same molecule?
Answer: Its fold change (FC) is 0.

Question: And the fold change (FC) [7]?
Answer: The fold change (FC) was 0.

Question: Which inhibition [8] does the source give for `CNC(=O)c1ccccc1Oc1nc(Nc2cc(OC)c(OC)c(OC)c2)ncc1Br` here?
Answer: The inhibition was 0%.

Question: What about the fold change (FC) [9] of the same molecule?
Answer: The fold change (FC) was 0.

Question: What about the fold change (FC) [10] of the same molecule?
Answer: Its fold change (FC) is 0.68.

Question: And the fold change (FC) [11]?
Answer: The fold change (FC) was 0.

Question: Which results are given for `CC(C)[C@H](NC(=O)c1cc(-c2cnn3cc(-c4ccc(OCCN5CCCCC5)cc4)cnc23)cs1)C(F)(F)F`?
Answer: inhibition [12]: 0%; fold change (FC) [13]: 0; fold change (FC) [14]: 0.4; fold change (FC) [15]: 0.85

Reference: ChEMBL document CHEMBL5653631, “A Potent and Selective ULK1 Inhibitor Suppresses Autophagy and Sensitizes Cancer Cells to Nutrient Stress” (iScience, 2018)
